The source of these data is patent US8431596B2 (Cancer Research Technology Limited, priority 2007, dated 2013).

Test [1] concerns Axl activation via the downstream phosphorylation of Akt (serine 473). Description: AXL Inhibition Cell Based ELISA Assay (FACE kit, Gas6-stimulated MDA-MB-231 cells). As to conditions: Homo sapiens, first data set, Gas6 200 ng/ml, pS473 Akt. How it is done:
AXL Inhibition Cell Based ELISA Assay
This cell based ELISA assay is a simple cell-based method used to monitor activation of proteins by phosphorylation. The Active Motif, Fast Activated Cell-based ELISA (FACE) kit (Active Motif Cat No: 48120) was used in this case to monitor the inhibition, by test compounds, of Axl activation via the downstream phosphorylation of Akt (serine 473). In this system, cells are cultured in 96 well plates and treated with test compounds and Axl is activated by the introduction of Gas6 (Axl ligand). The inhibition of Axl can be directly assessed via the reduction of pS^473 Akt levels.
Active Motif FACE Kit reagents (Active Motif Cat. No: 48120(AKT)).
10% hydrogen peroxide (Sigma H1009).
10% Sodium azide (Sigma 7128).
37% Formaldehyde (Sigma F8775).
Axl/Fc conjugate (R&D Systems 154-AL).
Recombinant mouse Gas6 (R&D Systems 986-GS-025).
All cell incubations were carried out in humidified incubators set at 5% CO2 and 37° C. […]
Immunostaining (carried out as outlined in FACE kit protocol). […] 100 μL developing solution was added to each well and monitored for colour change to medium to dark blue (2 to 20 minutes). 100 μL of stop solution was then added and absorbance was read at 450 nm within 5 minutes of addition.
Crystal Violet cell staining. After reading absorbance at 450 nm, the plates were washed twice with 200 μL wash buffer and twice with 200 μL PBS. […]
A general note: ELISA stands for enzyme-linked immunosorbent assay.

Test [2] has as its target T1, AXL (human catalytic domain) (Homo sapiens, UniProt P30530).
T1 construct: purchased Upstate Ltd. 14-512
T1 sequence (P30530 473-894): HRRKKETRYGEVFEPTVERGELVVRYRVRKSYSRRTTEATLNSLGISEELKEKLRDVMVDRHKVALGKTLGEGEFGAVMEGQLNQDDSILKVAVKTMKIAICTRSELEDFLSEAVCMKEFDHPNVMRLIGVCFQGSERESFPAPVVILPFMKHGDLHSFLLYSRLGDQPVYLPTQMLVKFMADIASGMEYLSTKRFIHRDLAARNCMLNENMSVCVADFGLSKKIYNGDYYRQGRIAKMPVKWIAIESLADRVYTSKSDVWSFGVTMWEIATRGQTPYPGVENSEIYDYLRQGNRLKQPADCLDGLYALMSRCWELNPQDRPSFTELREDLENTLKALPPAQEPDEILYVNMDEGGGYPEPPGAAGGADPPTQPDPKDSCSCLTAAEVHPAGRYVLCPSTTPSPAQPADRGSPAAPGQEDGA
Put plainly: AXL (human catalytic domain) Enzyme Activity Assay (IMAP fluorescence polarisation). The class given is biochemical. The gist of the method: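 IMAP FP readout (Ex485/Em535, after overnight binding) measured inhibition of the human AXL catalytic domain (aa473-894, 15 nM final) acting on 100 nM 5FAM-CSK-tide at 150 μM ATP, equal to KM. Reactions ran 60 min at room temperature in pH 7.0 HEPES buffer; IC50 from 10-point curves.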
In general terms: Fluorescence polarisation rises when a labelled molecule tumbles more slowly, as on binding a larger partner.

[3] abbreviates: first data set, recombinant AXL isoform 1 aa473-894, 150 μM ATP.
Where [4] appears, read: further data set (WW-001 through WW-169, XX-001 through XX-469, YY-001 through YY-016, ZZ-001 through ZZ-003), 150 μM ATP.

Take `CN1CCOc2cc(-c3cccc4nc(NC(=O)C5CC5)nn34)ccc21` [WW-104]: the IC50 was 8490 nM in test [1], less than 1000 nM in test [2] (setting [3]) and 100 to 1000 nM in test [2] (setting [4]).
For `CCNCCOc1ccc(Nc2nc3cccc(-c4ccc5c(c4)OCCO5)n3n2)cc1` [XX-070], the IC50 in test [1] is 1030 nM; in test [2] (setting [3]), less than 1000 nM; in test [2] (setting [4]), no more than 100 nM.

A word on the IC50: it is the midpoint of a concentration-inhibition curve.
